The values below come from PubChem BioAssay AID1288 (Columbia University Molecular Screening Center, 2008).

Structures are written as SMILES. The source made the active and inactive calls. How the calls were made is not given here.

A word on the inhibition: it is the change of the read-out against control, counted positive when it falls.

The assay can be described thus: E-selectin induction blockers, endothelial cells – imaging, retest plus dose response, cell count, confirmation (AID 1288).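 Further: 0% = stimulated vehicle wells and 100% = unstimulated vehicle wells.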 The following applies: human endothelial cells, TNFa-induced E-selectin, imaging; at 2 µM; stronger effect = higher value.
Regarding `COc1ccc2nc(SCc3nc(N)nc(Nc4ccccc4)n3)[nH]c2c1`, the inhibition is 6.2% (inactive).

Regarding `Cn1c(CCNC(=O)C2CCCCC2)nc2cc(NC(=O)c3cccs3)ccc21`, the inhibition was 3.87% (inactive).

With `O=[N+]([O-])c1ccc(N2CCNCC2)cc1NCC1CCCO1` (centres undefined), the inhibition was -1.91% (inactive).

For the compound `CCCOc1ccc(/C(O)=C2/C(=O)C(=O)N(CCCn3ccnc3)C2c2ccco2)cc1` (centres undefined), the inhibition is 0.88% (inactive).

`O=C(Nc1ccc(Cl)cc1)Nc1nnc(CSc2ccc(Cl)cc2)s1`: the inhibition was 6.9% (inactive).

For `O=C(C1CCCO1)N1CCN(c2c3c(nc4cc(-c5ccc(F)cc5)nn24)CCC3)CC1` (centres undefined), the inhibition was 5.9% (inactive).

With `Cc1ccc2cc(C#N)c(N3CCCC3)nc2c1C`, the inhibition was 8.05% (inactive).

For `Cc1nc2c(ccc3nc(NC(=O)c4ccc5c(c4)OCCO5)sc32)s1`, the inhibition was 3.48% (inactive).

With `COc1cc(C2C(C#N)=C(N)Oc3cc(C)n(CCc4ccccc4)c(=O)c32)cc2c1OCO2` (centres undefined), the inhibition is 4.3% (inactive).

For `CCC(CC)C(=O)c1c[nH]c(C(=O)NCCCN2CCOCC2)c1`, the inhibition is 2.64% (inactive).

In the case of `COc1ccc(CNC(=O)c2ccc(NC(=O)CC3SC(N4CCCCC4)=NC3=O)cc2)cc1` (centres undefined), the inhibition is 4.81% (inactive).

Take `Clc1ccc(Nc2ccc(-n3ccnc3)nn2)cc1Cl`: the inhibition was 11.7% (inactive).

Turning to `CCOc1ccc(-n2nc(C(=O)N3CCN(CC)CC3)c3ccccc3c2=O)cc1`, the inhibition is 18.4% (inactive).

In the case of `CC(C)C(=O)Nc1cc(=O)[nH]c2ncnn12`, the inhibition is 10.9% (inactive).

On to `Cc1sc(NC(=O)c2ccco2)c(CN2CCN(c3ccccn3)CC2)c1C`, for which the inhibition is 24.4% (inactive).

On to `C/C(=N\NC(=O)CC1N=C(Cc2ccccc2)NNC1=O)c1ccc(C)cc1` (centres undefined), for which the inhibition is 3.58% (inactive).

Consider `COc1ccc(Br)cc1CN(C)CC(=O)Nc1c(Cl)cccc1Cl`, for which the inhibition was 0.05% (inactive).

As to `O=C(COc1ccc(/C=N/NC(=O)C(=O)N2CCCCCC2)cc1)Nc1ccccc1Cl`, the inhibition was 8.09% (inactive).

As for `Cn1c(SCC(=O)N2CCOCC2)nnc1-c1cccc(NC(=O)c2ccccc2)c1`, the inhibition was -2.57% (inactive).

Turning to `COc1ccc2[nH]c(C)c(CCN3C(=O)C4C5C=CC(C5)C4C3=O)c2c1` (centres undefined), the inhibition was 9.54% (inactive).

With `Cc1ccn2cc(CCNS(=O)(=O)c3ccc(F)c(C(F)(F)F)c3)nc2c1`, the inhibition was 0.82% (inactive).

Turning to `Cc1cccc(OCCCC(=O)O)c1`, the inhibition is 4.01% (inactive).

Consider `O=C(N/N=C/c1ccc([N+](=O)[O-])s1)c1cccnc1`, for which the inhibition was 44.3% (inactive).

`CCCCCC1NC(=O)NC1CCCCCC(=O)O` (centres undefined): the inhibition is 0.1% (inactive).

Regarding `O=C(c1ccccc1F)N1CCN(c2ccccc2F)CC1`, the inhibition was 27.8% (inactive).

As for `Cc1cc2nc(-c3ccc(SCc4ccc(C#N)cc4)nc3)[nH]c2cc1C`, the inhibition was 1.98% (inactive).

On to `CC(NC(=O)COc1cccc(Br)c1)C(=O)O` (centres undefined), for which the inhibition was 24.6% (inactive).

As for `C=CCn1c(SCC(=O)NC)nc2sc3c(c2c1=O)CCC3`, the inhibition is 4.27% (inactive).

As to `O=C(O)C1C2C=CC(C2)C1C(=O)NCCCc1ccccc1` (centres undefined), the inhibition is 3.67% (inactive).

Consider `CCC(C(=O)OC)n1c(-c2ccccc2)nc2ccccc2c1=O` (centres undefined), for which the inhibition was 10.1% (inactive).

As for `COc1ccc(-n2c(COc3ccccc3)nnc2SCC(N)=O)cc1`, the inhibition is 42.3% (inactive).

As for `CC(OC(=O)c1ccco1)C(=O)NC1CCCCC1` (centres undefined), the inhibition is 18.2% (inactive).

Consider `Cc1cc(OCC(=O)Nc2ccncc2)c(C)cc1Br`, for which the inhibition is 3.41% (inactive).

Consider `CC(C)Cn1c(-c2cccs2)nc2ccccc21`, for which the inhibition was 25.7% (inactive).

For the compound `C/C(=N\Nc1cc(-c2ccccc2)nc(-c2ccccc2)n1)c1ccc(O)c(C)c1`, the inhibition is 5.91% (inactive).

For `CC(=O)c1c(C)[nH]c(C(=O)Nc2ccccc2N2CCOCC2)c1C`, the inhibition was 4.19% (inactive).

Turning to `Cc1cc(NC(=O)CSc2n[nH]c(N)n2)no1`, the inhibition was 14.1% (inactive).

With `CN1CCN(C(c2ccc(F)cc2)c2nnnn2Cc2cccs2)CC1` (centres undefined), the inhibition is 10.2% (inactive).

On to `COc1ccc(Cc2nnc(SCC(=O)NC3CCCC3)o2)cc1`, for which the inhibition was 40.2% (inactive).

In the case of `Cc1cccc(C)c1NC(=O)CN(C)C(=O)/C=C/c1cccs1`, the inhibition was 1.62% (inactive).

In the case of `CCC(=O)Nc1cccc(NC(=O)CSc2nnc(-c3ccc(NS(C)(=O)=O)cc3)n2C)c1`, the inhibition is -2.9% (inactive).

Consider `CC(C)CCNC(=O)c1nnc(Cc2ccc(Cl)cc2)o1`, for which the inhibition is 4.7% (inactive).

As for `O=C(O)CCC(=O)Nc1ccc(Br)c(Cl)c1`, the inhibition was -3.06% (inactive).

With `N#Cc1cc2sc3nnc(-c4ccncc4)n3c2cc1C#N`, the inhibition is 24.9% (inactive).

As to `CC(=O)Nc1ccc(OCCF)cc1`, the inhibition was 0.31% (inactive).

As for `Cc1ccc(CNC(=O)CCc2nc3ccccc3c(=O)[nH]2)cc1`, the inhibition is 15.6% (inactive).

Take `Cc1ccc(C(C)n2cc(C(=O)NCCN3CCN(C)CC3)nn2)cc1` (centres undefined): the inhibition is 22.4% (inactive).

In the case of `O=C(Nc1cccc(-c2cn3ccccc3n2)c1)c1cccc(Cl)c1`, the inhibition was 8.96% (inactive).

`CC1CN(C(=O)/C(C#N)=C2\N=C(NC(=O)c3ccccc3Cl)c3ccccc32)CC(C)O1` (centres undefined): the inhibition was -0.23% (inactive).

In the case of `CN1CCC(N(C)C(=S)NC(=O)C23CC4CC(CC(C4)C2)C3)CC1`, the inhibition was 28.5% (inactive).

For `CCOC(=O)N1CCC(N2CCN(S(=O)(=O)c3ccc(NC(C)=O)cc3)CC2)CC1`, the inhibition is 5.13% (inactive).

For `CCN(CC)S(=O)(=O)c1ccc(-c2nnc(SCC(=O)Nc3ccc(OC)cc3)o2)cc1`, the inhibition is 23.9% (inactive).

On to `NC(=O)C1CCCN(C(=S)Nc2cccc3ccccc23)C1` (centres undefined), for which the inhibition is 9.37% (inactive).

As for `FC(F)(F)c1cnc2c(-c3ccccc3)n[nH]c2c1`, the inhibition is 0.15% (inactive).

For the compound `CCC1Sc2ccccc2N(CC(=O)NCc2ccc3c(c2)OCO3)C1=O` (centres undefined), the inhibition is 9.94% (inactive).

For `Cc1ccc(/C=c2\sc3n(c2=O)CN(c2cccc(Br)c2)CN=3)o1`, the inhibition was 3.58% (inactive).

In the case of `O=c1cc(CO)oc(C(Nc2ccccn2)c2ccccc2F)c1O` (centres undefined), the inhibition was 13.7% (inactive).

For the compound `COc1ccc(CCNC(=O)CSc2nc(-c3ccco3)cc(C(F)(F)F)n2)cc1OC`, the inhibition is 18.9% (inactive).

With `O=C(/C=C/Nc1cccc(C(F)(F)F)c1)c1ccc(Oc2ncccn2)cc1`, the inhibition is 18% (inactive).

Regarding `CC(C)(C)c1ccc(OCCCNCc2ccccc2)cc1`, the inhibition is -6.22% (inactive).

Turning to `CC(C)[C@H](NC(=O)CCn1nnc2ccccc2c1=O)C(=O)O`, the inhibition was 4.34% (inactive).

For `O=C(c1cccs1)N1CCN=C1SCc1ccccc1`, the inhibition is 9.69% (inactive).

On to `O=S1(=O)CCN(C(CCO)c2cccc(C(F)(F)F)c2)CC1` (centres undefined), for which the inhibition was 4.23% (inactive).

Regarding `Cc1ccc(C(=O)Nc2ccc(O)cc2C(=O)O)cc1`, the inhibition is 3% (inactive).

In the case of `Cc1cccc(NC(=O)Nc2ccc(C#N)cc2)n1`, the inhibition is 4.19% (inactive).

For `Cc1ccc(C)c(NC(=O)CSc2nnc([C@@H](N)Cc3ccccc3)o2)c1`, the inhibition was 13.6% (inactive).

As to `Cc1noc(C)c1S(=O)(=O)N1CCC(C(=O)N2CCN(Cc3ccc4c(c3)OCO4)CC2)CC1`, the inhibition is 7.72% (inactive).

In the case of `O=C(O)CSc1nnc(-c2ccncc2)n1CCc1ccccc1`, the inhibition is 28.9% (inactive).

With `COC(=O)c1c(NC(=O)C2COc3ccccc3O2)sc2c1CCN(Cc1ccccc1)C2` (centres undefined), the inhibition was 25.5% (inactive).

Take `COc1ccc(OC)c(CCNC(=O)CSc2ccsc2[N+](=O)[O-])c1`: the inhibition is 4.97% (inactive).

Take `CCS(=O)(=O)Nc1ccc(-c2cc(-c3ccccc3)c3cc(C)ccc3n2)cc1`: the inhibition is 0.49% (inactive).

For the compound `CCOC(=O)Cc1c(C)nc2c(-c3ccccc3)c[nH]n2c1=O`, the inhibition was 0.71% (inactive).

Take `CC(C)CC1NC(=O)N(CC(=O)N2CCN(S(=O)(=O)c3ccc(Cl)cc3)CC2)C1=O` (centres undefined): the inhibition is -2.35% (inactive).

Regarding `CO/C([O-])=N/c1c[n+](-c2ccc(Cl)cc2)no1`, the inhibition was 26.1% (inactive).

Consider `COc1ccccc1N1CCN(C(=O)c2ccc(Br)s2)CC1`, for which the inhibition is 0.09% (inactive).

For the compound `CCCNc1ncnc2sc(C)c(C)c12`, the inhibition is 12.7% (inactive).

On to `CC1=NN(C(C)C)C(=O)C1`, for which the inhibition was 25.1% (inactive).

Regarding `COc1ccc(NC(=O)c2c(C)oc3c2CCCC3)cc1`, the inhibition was 3.37% (inactive).

`COc1ccc(-n2c(SCC(=O)NCc3ccco3)nc3c([nH]c4ccccc43)c2=O)cc1`: the inhibition was 1.34% (inactive).

For `CN=C(C)C1=C(O)C(C(=O)OC)C(C)(C)CC1=O` (centres undefined), the inhibition was -0.09% (inactive).

On to `CCOC(=O)C1C(c2cc(OC)c(O)c(OC)c2)NC(=S)NC1(O)C(F)(F)F` (centres undefined), for which the inhibition is 7.39% (inactive).

On to `CN1CCN(S(=O)(=O)c2ccc(NC(=O)C3CCCO3)cc2)CC1` (centres undefined), for which the inhibition is 13.2% (inactive).

`CC(c1ccco1)N(C(=O)C12CC3CC(CC(C3)C1)C2)c1ccccn1` (centres undefined): the inhibition was 5.6% (inactive).

On to `Cc1ccc(/C=C/C(=O)O)cc1S(=O)(=O)NCCO`, for which the inhibition was 1.34% (inactive).

On to `CCOC(=O)Cc1nnc(NC(=O)CSc2ccc(Cl)cc2)s1`, for which the inhibition was 2.82% (inactive).

Regarding `COC(=O)CN1C(=S)N(c2ccc(Cl)cc2)C(=O)C1CC(=O)Nc1ccc(Cl)cc1` (centres undefined), the inhibition was -1.33% (inactive).

For `CCCN1CCc2[nH]c(=S)[nH]c(=O)c2C1`, the inhibition was -2.07% (inactive).

In the case of `O=S(=O)(Nc1ccccn1)c1ccc(Cl)c2ccccc12`, the inhibition is 9.42% (inactive).

As for `CCOC(=O)c1sc(=N)n(-c2ccc(OC)cc2)c1C`, the inhibition was -1.33% (inactive).
